# Patent US9850206B2, “S1P and/or ATX modulating agents” (BIOGEN MA INC., priority 2012, dated 2017)
# Like-named read-outs stand apart in the source and are kept apart here.
# Tests used:
# [1] = target: S1P5 (Homo sapiens, UniProt Q9H228); experiment: S1P receptor activity assay (calcium flux, FLIPR TETRA), S1P5; type: cell-based
# From the text: (§1) Agonist percentage activation determinations were obtained by assaying sample compounds and referencing the Emax control for each receptor profiled. Antagonist percentage inhibition determinations were obtained by assaying sample compounds and referencing the control EC80 wells for each receptor profiled. The samples were run using a “Single Addition” assay protocol for the agonist and antagonist assay run. The protocol design was as follows:
# (§2) Master stock solution: Unless specified otherwise, all sample compounds were diluted in 100% anhydrous DMSO including all serial dilutions. All control wells contained identical solvent final concentrations as did the sample compound wells.
# (§3) Compound plate for assay: The sample compounds were transferred from a master stock solution into a daughter plate that was used in the assay. Each sample compound was diluted into assay buffer (1×HBSS with 20 mM HEPES and 2.5 mM Probenecid) at an appropriate concentration to obtain final concentrations.
# (§4) Sample compounds were plated in an eight-point, four-fold dilution series in duplicate with a top concentration of 10 μM. The concentrations described here reflect the final concentration of the compounds during the antagonist assay.
# (§5) Reference agonists were handled as mentioned above serving as assay control. The reference agonists were handled as described above for Emax.
# (§6) Assay was read for 180 seconds using the […] (This assay run added sample compounds and reference agonist to respective wells). At the completion of the first “Single Addition” assay run, assay plate was removed from the […] and placed at 25° C. for seven (7) minutes.
# (§7) Using the EC80 values determined during the agonist assay, stimulated all pre-incubated sample compound and reference antagonist (if applicable) wells with EC80 of reference agonist. Read for 180 seconds using the […] (This assay added reference agonist to respective wells—then fluorescence measurements were collected to calculate percentage inhibition values).
# (§8) All plates were subjected to appropriate baseline corrections. Once baseline corrections were processed, maximum fluorescence values were exported and data manipulated to calculate percentage activation, percentage inhibition and Z′.
# [2] = target: T1, S1P4 (Homo sapiens, UniProt O95977); experiment: S1P receptor activity assay (calcium flux, FLIPR TETRA), S1P4; type: cell-based
# T1 sequence (O95977 1-384): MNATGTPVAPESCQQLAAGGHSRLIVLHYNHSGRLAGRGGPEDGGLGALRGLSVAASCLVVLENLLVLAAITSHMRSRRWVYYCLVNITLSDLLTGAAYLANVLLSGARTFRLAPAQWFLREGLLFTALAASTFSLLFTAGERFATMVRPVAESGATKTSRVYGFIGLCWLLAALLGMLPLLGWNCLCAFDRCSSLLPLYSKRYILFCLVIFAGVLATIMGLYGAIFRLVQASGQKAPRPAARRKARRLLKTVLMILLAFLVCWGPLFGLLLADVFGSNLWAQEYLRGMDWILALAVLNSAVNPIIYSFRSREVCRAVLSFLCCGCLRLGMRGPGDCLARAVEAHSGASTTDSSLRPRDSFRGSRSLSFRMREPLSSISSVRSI
# From the text: as §1, §2, §3, §4, §5, §6, §7, §8
# [3] = test system: OPCs (oligodendrocyte precursor cells); experiment: OPC differentiation assay; type: cell-based, Sprague Dawley rats; conditions: 2 μM and 20 μM, 3-day incubation
# Description: Enriched populations of oligodendrocytes were grown from post-natal day 2 (P2) female Sprague Dawley rats. The forebrain was dissected out and placed in Hank's buffered saline solution (HBSS; Invitrogen, Grand Island, N.Y.). The tissue was cut into 1 mm fragments and incubated at 37° C. for 15 minutes in 0.01% trypsin and 10 μg/mL DNase. Dissociated cells were plated on poly-L-lysine-coated T75 tissue culture flasks and grown at 37° C. for 10 days in Dulbecco's modified Eagle's medium (DMEM) with 20% fetal calf serum (Invitrogen). A2B5+OPCs were collected by shaking the flask overnight at 200 rpm and 37° C., resulting in a 95% pure population.
# For the differentiation assay, 2 μM and 20 μM antagonist or the same concentrations of vehicle (DMSO) were applied to OPCs cultured in CNTF/T3 containing media. After a 3-day incubation, […], cell were lysed and then subjected to MSD (Meso Scale Discovery-R) analysis. EC50 was calculated by Prism using a nonlinear sigmoidal dose-response curvecells. […] After centrifugation at 14,000 g for 15 minutes, the supernatants were boiled in Laemmli sample buffer, subjected to 4-20% SDS-PAGE, and analyzed by Western blotting with anti-MBP, anti-myelin-associated glycoprotein (MAG), or anti-beta actin antibodies. […]
# [4] = target: S1P1 (Homo sapiens, UniProt P21453); experiment: S1P receptor activity assay (calcium flux, FLIPR TETRA), S1P1; type: cell-based
# From the text: as §1, §2, §3, §4, §5, §6, §7, §8
# [5] = target: T2, Human ATX protein (Homo sapiens, UniProt Q13822); experiment: Autotaxin (ATX) FRET assay with FS-3 substrate; type: biochemical
# T2 construct: made in house
# From the text: ATX (Autotaxin) is a 125 KDa glycoprotein with lysophospholipase D (LPLD) activity that generates the bioactive lipid lysophosphatidic acid (LPA) from lysophosphatidylcholine (LPC). The ATX biochemical assay utilizes a FRET (fluorescence resonance energy transfer) technology platform. […] ATX catalyzes the hydrolysis of the substrate which separates the dabsyl quencher from the fluorescein reporter, which becomes fluorescent. The reaction is monitored by a SpectraMax M5 (Molecular Devices, Sunnyvale, Calif.) with at excitation wavelength 485 nm and emission wavelength 535 nm.
# Fatty acid free-BSA (Sigma A8806): 10 mg/mL in H2O, stored at 4° C.
# 2×ATX assay buffer: 100 mM Tris, 280 mM NaCl, 10 mM KCl, 2 mM CaCl2, 2 mM MgCl2, pH 7.4.
# Human ATX protein: expressed and purified in house. Stored at −80° C.
# Substrate FS-3 (Echelon, L-2000): 100 μg in 77.74 μL H2O (1 mM stock), stored at −20° C.
# Compound dilution—All compounds were provided at 10 mM in 100% DMSO. In the first well, 2 μL of 10 mM compound was added to 78 μL of DMSO (1:40 dilution). In subsequent wells 3-fold dilution (total 10 dilutions) were performed.
# 1×ATX assay buffer was made up with a final concentration of 1 mg/mL fatty acid free-BSA using 2×ATX assay buffer, 10 mg/ml fatty acid free-BSA and ddH2O.
# 38 μL was added per well to the assay plate. The final concentration of ATX in the reaction as 1.0 μg/mL.
# 2 μL per well of compounds was transferred to provide the desired concentration. The plate was centrifuged, then incubated at room temperature for 30 minutes on the shaker.
# FS-3 was diluted with 1×ATX assay buffer to a concentration of FS-3 of 10 μM (5×). Then, 10 μL was added per well to the assay plate. The final concentration of FS-3 in the reaction was 2 μM. The plate was centrifuged. The plate was kept shaking at room temperature for 2 hours. Because FS-3 substrate is light sensitive, plates were kept covered and protected from light.
# [6] = calcium flux, top concentration 10 μM, read-out: IC50 for S1P5
# [7] = calcium flux, top concentration 10 μM, the >5 μM sentence says only 'for S1P4', read-out: IC50 for S1P4 agonist activity
# [8] = calcium flux, top concentration 10 μM, the >5 μM sentence says only 'for S1P1', read-out: IC50 for S1P1 agonist activity
# [9] = FS-3 2 μM, ATX 1.0 μg/mL, 2 hours at room temperature, read-out: IC50 (ATX)
# Chain of S1P1 (P21453 whole entry): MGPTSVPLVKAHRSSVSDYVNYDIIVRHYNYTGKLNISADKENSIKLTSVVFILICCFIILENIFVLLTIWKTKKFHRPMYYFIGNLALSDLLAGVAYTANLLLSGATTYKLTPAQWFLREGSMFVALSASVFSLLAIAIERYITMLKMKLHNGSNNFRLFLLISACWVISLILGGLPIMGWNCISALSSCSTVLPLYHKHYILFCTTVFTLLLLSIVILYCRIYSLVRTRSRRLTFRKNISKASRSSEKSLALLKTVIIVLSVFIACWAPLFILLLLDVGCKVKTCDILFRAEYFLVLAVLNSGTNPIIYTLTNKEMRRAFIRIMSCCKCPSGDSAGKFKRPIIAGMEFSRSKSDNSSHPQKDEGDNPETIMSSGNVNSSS
# Chain of S1P5 (Q9H228 whole entry): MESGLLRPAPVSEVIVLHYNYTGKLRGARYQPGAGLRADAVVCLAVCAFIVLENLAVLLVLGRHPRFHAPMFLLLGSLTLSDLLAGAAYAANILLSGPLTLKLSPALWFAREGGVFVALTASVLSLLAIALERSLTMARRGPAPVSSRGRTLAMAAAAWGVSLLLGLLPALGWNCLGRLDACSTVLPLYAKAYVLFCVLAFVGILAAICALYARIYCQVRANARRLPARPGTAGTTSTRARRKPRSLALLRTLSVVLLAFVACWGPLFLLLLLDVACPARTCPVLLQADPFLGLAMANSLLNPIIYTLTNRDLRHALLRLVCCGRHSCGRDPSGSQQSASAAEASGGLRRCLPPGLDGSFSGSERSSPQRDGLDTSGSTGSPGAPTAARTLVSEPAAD
smiles,measurement,setting,value
"CCCCCCCCOc1ccc(N2CCN(CCC(=O)O)CC2)cc1 [Example 14, 3-(4-(4-(Octyloxy)phenyl)piperazin-1-yl)propanoic acid]",IC50,[1],> 5 µM
same,IC50,[2],≤ 2 µM
same,result in the OPC assay,[3],positive
same,IC50,[4],> 5 µM
same,IC50,[5],> 10 µM
"CCCCCCCCOc1ccc(N2CCN(CC34CCC(C(=O)O)(CC3)CC4)CC2)cc1 [Example 16, 4-((4-(4-(Octyloxy)phenyl)piperazin-1-yl)methyl)bicyclo[2.2.2]octane-1-carboxylic acid]",IC50,[1],> 5 µM
same,IC50,[2],≤ 5 µM
same,result in the OPC assay,[3],positive
same,IC50,[4],> 5 µM
same,IC50,[5],≤ 5 µM
"O=C(O)CCCCN1CCC(c2ccc(OC3CCC4(CCCC4)CC3)cc2)CC1 [Example 44, 5-(4-(4-(Spiro[4.5]decan-8-yloxy)phenyl)piperidin-1-yl)pentanoic acid]",IC50,[1]; [6],≤ 2 µM
same,IC50,[2]; [7],≤ 2 µM
same,IC50,[4]; [8],> 5 µM
same,IC50,[5]; [9],> 10 µM
"CC(C)(C)[C@H]1CC[C@H](Oc2ccc(C3=CCN(CCC(=O)O)CC3)cc2)CC1 [Example 45, 3-(4-(4-((trans-4-(tert-Butyl)cyclohexyl)oxy)phenyl)-5,6-dihydropyridin-1(2H)-yl)propanoic acid]",IC50,[1]; [6],> 5 µM
same,IC50,[2],≤ 2 µM
same,IC50,[4],2 to 5 µM
same,IC50,[5]; [9],5 to 10 µM
"CC(C)(C)[C@H]1CC[C@H](Oc2ccc(C3CCN(CCC(=O)O)CC3)cc2)CC1 [Example 46, 3-(4-(4-((trans-4-(tert-Butyl)cyclohexyl)oxy)phenyl)piperidin-1-yl)propanoic acid]",IC50,[1]; [6],> 5 µM
same,IC50,[2]; [7],≤ 2 µM
same,IC50,[4]; [8],≤ 2 µM
same,IC50,[5]; [9],5 to 10 µM
"CC(C)(C)[C@H]1CC[C@H](Oc2ccc(C3=CCN(CCCC(=O)O)CC3)cc2)CC1 [Example 47, 4-(4-(4-((trans-4-(tert-Butyl)cyclohexyl)oxy)phenyl)-5,6-dihydropyridin-1(2H)-yl)butanoic acid]",IC50,[1]; [6],≤ 2 µM
same,IC50,[2],≤ 2 µM
same,IC50,[4],≤ 2 µM
same,IC50,[5]; [9],≤ 5 µM
"CC(C)(C)[C@H]1CC[C@H](Oc2ccc(C3CCN(CCCC(=O)O)CC3)cc2)CC1 [Example 48, 4-(4-(4-((trans-4-(tert-Butyl)cyclohexyl)oxy)phenyl)piperidin-1-yl)butanoic acid]",IC50,[1]; [6],≤ 2 µM
same,IC50,[2]; [7],≤ 2 µM
same,IC50,[4]; [8],≤ 2 µM
same,IC50,[5]; [9],≤ 5 µM
